For one assay, the target named is T1, human Y2 receptor (Homo sapiens, UniProt P49146).
T1 sequence (P49146 1-381): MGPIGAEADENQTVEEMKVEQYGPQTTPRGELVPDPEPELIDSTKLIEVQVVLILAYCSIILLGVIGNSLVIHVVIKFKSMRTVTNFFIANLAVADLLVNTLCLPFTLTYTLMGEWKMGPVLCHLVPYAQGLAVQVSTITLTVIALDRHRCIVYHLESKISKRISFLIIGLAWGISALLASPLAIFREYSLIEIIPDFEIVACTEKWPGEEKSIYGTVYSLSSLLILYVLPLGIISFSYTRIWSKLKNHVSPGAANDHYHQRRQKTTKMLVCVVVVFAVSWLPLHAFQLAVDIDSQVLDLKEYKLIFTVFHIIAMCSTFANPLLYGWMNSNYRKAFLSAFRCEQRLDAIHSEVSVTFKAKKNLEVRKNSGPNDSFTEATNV
In words: Radioligand binding to membranes, cloned human Y2 receptor.

For a further assay, the target named is T2, human Y4 receptor (Homo sapiens, UniProt P50391).
T2 construct: expressed in transfected cells; host or cells: mouse fibroblast LM(tk-) cells, e.g. L-hY4-3 (ATCC CRL-11779)
In words: Radioligand binding to membranes, cloned human Y4 receptor. The following applies: hNPY-4 (one cell for Y1, Y2, Y4), read-out: Ki, nM hNPY-1,2,4.

The target in a further assay is T3, human Y5 receptor (Homo sapiens, UniProt Q15761).
T3 construct: expressed in transfected cells; host or cells: mouse fibroblast LM(tk-) cells, e.g. L-hY5-7 (ATCC CRL-11995)
T3 sequence (Q15761 1-445): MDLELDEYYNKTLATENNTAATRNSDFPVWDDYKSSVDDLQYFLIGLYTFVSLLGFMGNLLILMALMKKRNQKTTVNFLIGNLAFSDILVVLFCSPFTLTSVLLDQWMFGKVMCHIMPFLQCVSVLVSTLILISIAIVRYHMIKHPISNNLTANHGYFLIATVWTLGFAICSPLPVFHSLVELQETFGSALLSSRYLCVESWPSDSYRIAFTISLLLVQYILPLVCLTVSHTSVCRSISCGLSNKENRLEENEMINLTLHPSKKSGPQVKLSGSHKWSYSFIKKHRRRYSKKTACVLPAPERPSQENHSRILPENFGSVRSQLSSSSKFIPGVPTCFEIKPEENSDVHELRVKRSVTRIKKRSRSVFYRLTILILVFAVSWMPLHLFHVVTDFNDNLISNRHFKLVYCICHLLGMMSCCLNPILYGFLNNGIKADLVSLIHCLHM
The assay can be described thus: Radioligand binding to membranes, cloned human Y5 receptor.

A further assay addresses T4, human Y1 receptor (Homo sapiens, UniProt P25929).
T4 construct: expressed in transfected cells; host or cells: human embryonic kidney 293 cells, e.g. 293-hY1-5 (ATCC CRL-12121)
T4 sequence (P25929 1-384): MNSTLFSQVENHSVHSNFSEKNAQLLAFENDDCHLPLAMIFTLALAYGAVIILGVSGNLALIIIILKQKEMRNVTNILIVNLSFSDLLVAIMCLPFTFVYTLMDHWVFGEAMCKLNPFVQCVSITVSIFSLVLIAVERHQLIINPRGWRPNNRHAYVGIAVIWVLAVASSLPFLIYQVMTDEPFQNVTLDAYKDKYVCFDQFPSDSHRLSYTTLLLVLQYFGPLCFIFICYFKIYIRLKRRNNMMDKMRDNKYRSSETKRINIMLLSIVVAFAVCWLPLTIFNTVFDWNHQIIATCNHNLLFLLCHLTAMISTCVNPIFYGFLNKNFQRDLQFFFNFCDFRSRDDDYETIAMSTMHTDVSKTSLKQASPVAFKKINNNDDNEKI
The assay can be described thus: Radioligand binding to membranes, cloned human Y1 receptor. As to conditions: hNPY-1 (one cell for Y1, Y2, Y4), read-out: Ki, nM hNPY-1,2,4.

Setting [1] is: Table 6, read-out: Ki, nM hNPY-5.
Where [2] appears, read: Table 5, read-out: Ki, nM hNPY-5.
The mark [3] stands for this setting: Table 2, read-out: Ki (nM) hNPY-5.
[4] abbreviates: Table 1, read-out: Ki (nM) hNPY-5.

SMILES strings stand for the structures. Like-named read-outs stand apart in the source and are kept apart here. Where only a bound is given, the exact number is not on record here.

T2 sequence (P50391 whole entry): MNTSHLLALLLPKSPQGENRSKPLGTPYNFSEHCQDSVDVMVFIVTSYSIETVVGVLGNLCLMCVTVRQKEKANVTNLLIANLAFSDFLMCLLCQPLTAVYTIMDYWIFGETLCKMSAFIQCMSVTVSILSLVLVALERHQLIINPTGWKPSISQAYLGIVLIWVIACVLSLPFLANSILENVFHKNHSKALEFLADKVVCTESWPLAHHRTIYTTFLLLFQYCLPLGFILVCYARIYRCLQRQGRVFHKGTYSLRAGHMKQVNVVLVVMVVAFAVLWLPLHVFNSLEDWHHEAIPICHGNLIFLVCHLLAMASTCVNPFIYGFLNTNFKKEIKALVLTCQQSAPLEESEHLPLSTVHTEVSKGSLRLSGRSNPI
Procedure for human Y1 receptor: (§1) Binding of the compounds of the present invention to human Y1, Y2, Y4, and Y5 receptors was evaluated using stably transfected 293 or LM(tk-) cells as described above.
(§2) Membranes were harvested from COS-7 cells 48 hours after transient transfection. Adherent cells were washed twice in ice-cold phosphate buffered saline (138 mM NaCl, 8.1 mM Na2HPO4, 2.5 mM KCl, 1.2 mM KH2PO4, 0.9 mM CaCl2, 0.5 mM MgCl2, pH 7.4) and lysed by sonication in ice-cold sonication buffer (20 mM Tris-HCl, 5 mM EDTA, pH 7.7). Large particles and debris were cleared by low speed centrifugation (200×g, 5 min, 4° C.). Membranes were collected from the supernatant fraction by centrifugation (32,000×g, 18 min, 4° C.), washed with ice-cold hypotonic buffer, and collected again by centrifugation (32,000×g, 18 min, 4° C.). The final membrane pellet was resuspended by sonication into a small volume of ice-cold binding buffer (˜1 ml for every 5 plates: 10 mM NaCl, 20 mM HEPES, 0.22 mM KH2PO4, 1.26 mM CaCl2, 0.81 mM MgSO4, pH 7.4). Protein concentration was measured by the Bradford method (Bradford, 1976) using Bio-Rad Reagent, with bovine serum albumin as a standard. Membranes were held on ice for up to one hour and used fresh, or flash-frozen and stored in liquid nitrogen.
(§3) Membranes were prepared similarly from 293, LM(tk-), and NIH-3T3 cells.
(§4) Membrane suspensions were diluted in binding buffer supplemented with 0.1% bovine serum albumin to yield an optimal membrane protein concentration so that ^125I-PYY (or alternative radioligand such as ^125I-NPY, ^125I-NYY3-36, or ^125I-[Leu^31Pro^34]PYY) bound by membranes in the assay was less than 10% of ^125I-PYY (or alternative radioligand) delivered to the sample (100,000 dpm/sample=0.08 nM for competition binding assays). ^125I-PYY (or alternative radioligand) and peptide competitors were also diluted to desired concentrations in supplemented binding buffer. Individual samples were then prepared in 96-well polypropylene microtiter plates by mixing ^125I-PYY (25 μL) (or alternative radioligand), competing peptides or supplemented binding buffer (25 μL), and finally, membrane suspensions (200 μL). Samples were incubated in a 30° C. water bath with constant shaking for 120 min. Incubations were terminated by filtration over Whatman GF/C filters (pre-coated with 1% polyethyleneimine and air-dried before use), followed by washing with 5 mL of ice-cold binding buffer. Filter-trapped membranes were impregnated with MeltiLex solid scintillant (Wallac, Turku, Finland) and counted for ^125I in a Wallac Beta-Plate Reader. Alternatively, incubations were carried out in GF/C filter plates (pre-coated with 1% polyethyleneimine and air-dried before use), followed by vacuum filtration and three washes of 300 μL of ice-cold binding buffer. 50 μL of UltimaGold (Packard) scintillant were added and counted for ^125I, in a Wallac MicroBeta Trilux. Non-specific binding was defined by 300 nM human NPY for all receptors except the Y4 subtypes; 100 nM human PP was used for the human Y4 and 100 nM rat PP for the rat Y4.
Procedure for human Y2 receptor: as §1, §2, §3, §4
Procedure for human Y4 receptor: as §1, §2, §3, §4

`O=S(=O)(NCCCCCNc1nc2c(s1)CCSc1ccc(F)cc1-2)c1cccs1` [Example 162, N2-{5-[(9-Fluoro-4,5-dihydrobenzo[2,3]thiepino[4,5-d][1,3]thiazol-2-yl)amino]pentyl}-2-thiophenesulfonamide]: the Ki on human Y2 receptor was > 10000 nM; on human Y4 receptor (Table 6) it was > 10000 nM; at human Y5 receptor (setting [1]) it was 4.8 nM; on human Y1 receptor (Table 6), > 10000 nM.
For the compound `CCS(=O)(=O)NC[C@H]1CC[C@H](Nc2nc3c(s2)CCSc2ccccc2-3)CC1` [Example 107, N1-{[4-(4,5-Dihydrobenzo[2,3]thiepino[4,5-d][1,3]thiazol-2-ylamino)cyclohexyl]methyl}-1-ethanesulfonamide], the Ki is > 10000 nM on human Y2 receptor, > 10000 nM on human Y4 receptor (Table 6), 5.1 nM at human Y5 receptor (setting [1]) and > 10000 nM on human Y1 receptor (Table 6).
In the case of `COc1ccc(C)cc1S(=O)(=O)NCCCCCNc1nc(-c2cc3ccccc3s2)cs1` [Example 76, N1-{5-[(4-Benzo[b]thiophen-2-yl-1,3-thiazol-2-yl)amino]-pentyl}-2-methoxy-5-methyl-1-benzenesulfonamide], the inhibition constant Ki at human Y2 receptor was > 10000 nM; on human Y4 receptor (Table 5) it was > 10000 nM; at human Y5 receptor (setting [2]), 11 nM; at human Y1 receptor (Table 5), > 10000 nM.
As for `O=S(=O)(NCCCCCNc1nc(-c2cccnc2)cs1)c1ccccc1F` [Example 70, 2-(5-(2-Fluorophenyl)sulfonylamino)pentylamino-4-(3-pyridyl)thiazole hydrogen chloride], the Ki on human Y2 receptor was > 10000 nM; at human Y4 receptor (Table 5), > 10000 nM; on human Y5 receptor (setting [2]), 21 nM; at human Y1 receptor (Table 5), > 10000 nM.
Turning to `CCS(=O)(=O)NCCCCCNc1nc2c(s1)CCSc1ccccc1-2` [Example 109, N1-[5-(4,5-Dihydrobenzo[2,3]thiepino[4,5-d][1,3]thiazol-2-ylamino)pentyl]-1-ethanesulfonamide], the Ki on human Y2 receptor is > 10000 nM; on human Y4 receptor (Table 6) it was > 10000 nM; at human Y5 receptor (setting [1]) it was 3.7 nM; at human Y1 receptor (Table 6), > 10000 nM.
Consider `CS(=O)(=O)NCCCCCNc1nc2c(s1)CCSc1ccc(F)cc1-2` [Example 159, N-{5-[(9-Fluoro-4,5-dihydrobenzo[2,3]thiepino[4,5-d][1,3]thiazol-2-yl)amino]pentyl}methanesulfonamide], for which the inhibition constant (Ki) at human Y2 receptor is > 10000 nM; on human Y4 receptor (Table 6), > 10000 nM; on human Y5 receptor (setting [1]) it was 6.1 nM; on human Y1 receptor (Table 6), > 10000 nM.
`COc1ccc(C)cc1S(=O)(=O)NCCCCCNc1nc(-c2ccsc2)cs1` [Example 79, N1-(5-{[4-(3-Thienyl)-1,3-thiazol-2-yl]amino}pentyl)-2-methoxy-5-methyl-1-benzenesulfonamide]: the inhibition constant (Ki) was > 10000 nM on human Y2 receptor, > 10000 nM at human Y4 receptor (Table 5), 545 nM at human Y5 receptor (setting [2]) and > 10000 nM at human Y1 receptor (Table 5).
On to `O=S(=O)(NCCCCCNc1nc2c(s1)CCSc1ccc(F)cc1-2)c1ccccc1F` [Example 161, N1-{5-[(9-Fluoro-4,5-dihydrobenzo[2,3]thiepino[4,5-d][1,3]thiazol-2-yl)amino]pentyl}-2-fluoro-1-benzenesulfonamide], for which the Ki on human Y2 receptor is > 10000 nM; on human Y4 receptor (Table 6) it was > 10000 nM; at human Y5 receptor (setting [1]), 4.9 nM; at human Y1 receptor (Table 6) it was > 10000 nM.
On to `Cc1noc(C)c1S(=O)(=O)NCCCCCNc1nc(-c2cccnc2)cs1` [Example 71, 2-(5-(3,5-Dimethylisoxazol-4-yl)sulfonylamino)pentylamino-4-(3-pyridyl)thiazole hydrogen chloride], for which the inhibition constant (Ki) on human Y2 receptor is > 10000 nM; at human Y4 receptor (Table 5), > 10000 nM; on human Y5 receptor (setting [2]) it was 37 nM; on human Y1 receptor (Table 5), > 10000 nM.
As to `Cc1noc(C)c1S(=O)(=O)NCCCCCNc1nc(-c2ccncc2)cs1` [Example 74, 2-(5-(3,5-Dimethylisoxazol-4-yl)sulfonylamino)pentylamino-4-(4-pyridyl)thiazole hydrogen chloride], the Ki at human Y2 receptor is > 10000 nM; on human Y4 receptor (Table 5), > 10000 nM; at human Y5 receptor (setting [2]) it was 745 nM; at human Y1 receptor (Table 5), > 10000 nM.
Consider `O=S(=O)(NCCCCCNc1nc2c(s1)CCSc1ccccc1-2)c1cccs1` [Example 110, N2-[5-(4,5-Dihydrobenzo[2,3]thiepino[4,5-d][1,3]thiazol-2-ylamino)pentyl]-2-thiophenesulfonamide], for which the Ki was > 10000 nM on human Y2 receptor, > 10000 nM on human Y4 receptor (Table 6), 2.6 nM on human Y5 receptor (setting [1]) and > 10000 nM at human Y1 receptor (Table 6).
With `COc1ccc(C)cc1S(=O)(=O)NCCCCCNc1nc(-c2ccncc2)cs1` [Example 75, 2-(5-(2-Methoxy-5-methyl)phenylsulfonylamino)pentylamino-4-(4-pyridyl)thiazole hydrogen chloride], the inhibition constant Ki was > 10000 nM at human Y2 receptor, > 10000 nM at human Y4 receptor (Table 5), 5 nM on human Y5 receptor (setting [2]) and > 10000 nM at human Y1 receptor (Table 5).
For `CCN(CC)S(=O)(=O)NCCCCCNc1nc(-c2ccccn2)cs1` [Example 59, 2-(5-Diethylaminosulfonylamino)pentylamino-4-(2-pyridyl)-thiazole hydrogen chloride], the Ki on human Y2 receptor, on human Y4 receptor (Table 5) and on human Y1 receptor (Table 5) was > 10000 nM in each case.
With `CCNc1nc(NCC)nc(NCC2CCC(CNS(=O)(=O)c3oc(C)nc3C)CC2)n1` (centres unmarked) [Example 36, N5-[4-([4,6-di(ethylamino)-1,3,5-triazin-2-yl]aminomethyl)cyclohexyl]methyl-2,4-dimethyl-1,3-oxazole-5-sulfonamide], the Ki at human Y5 receptor (setting [3]) worked out at 71 nM.
On to `O=S(=O)(Cc1ccccc1)NC[C@H]1CC[C@H](Nc2nc3c(s2)CCSc2ccccc2-3)CC1` [Example 153, N-{[4-(4,5-Dihydrobenzo[2,3]thiepino[4,5-d][1,3]thiazol-2-ylamino)cyclohexyl]methyl}phenyl-methanesulfonamide], for which the Ki on human Y5 receptor (setting [1]) turned out to be 8.9 nM.
Still for that read-out and setting: the figure for `O=S(=O)(Cc1ccccc1)NCCCCCNc1nc2c(s1)CCSc1ccccc1-2` [Example 133, N-[5-(4,5-dihydrobenzo[2,3]thiepino[4,5-d][1,3]thiazol-2-ylamino)pentyl]phenyl-methanesulfonamide] is 38 nM.
Regarding `CC(C)Nc1nc(NCC2CCC(CNS(=O)(=O)c3cccc4ccccc34)CC2)nc(N2CCOCC2)n1` (centres unmarked) [Example 24, N1-[4-([4-(isopropylamino)-6-morpholino-1,3,5-triazin-2-yl]aminomethyl)cyclohexyl]methyl-1-naphthalenesulfonamide], the Ki at human Y5 receptor (setting [4]) is 40 nM.
Consider `CC(C)Nc1nc(NCC2CCC(CNS(=O)(=O)N3CCCCC3)CC2)nc(N2CCCCC2)n1` (centres unmarked) [Example 45, N1-[4-([4-(isopropylamino)-6-piperidino-1,3,5-triazin-2-yl]aminomethyl)cyclohexyl]methyl-1-piperidinesulfonamide], for which the inhibitory constant (Ki) at human Y5 receptor (Table 3, read-out: Ki (nM) hNPY-5) turned out to be 59 nM.
In the case of `COCCNc1nc(NCC2CCC(CNS(=O)(=O)c3cccc4ccccc34)CC2)nc(NC(C)C)n1` (centres unmarked) [Example 12, N1-(4-[(4-(isopropylamino)-6-[(2-methoxyethyl)amino]-1,3,5-triazin-2-ylamino)methyl]cyclohexylmethyl)-1-naphthalenesulfonamide], the inhibition constant Ki at human Y5 receptor (setting [4]) was determined as 18 nM.
Regarding `CN(C)S(=O)(=O)NCCCCCNc1nc(-c2cccs2)cs1` [Example 91, N,N-Dimethyl-N′-(5-{[4-(2-thienyl)-1,3-thiazol-2-yl]amino}-pentyl)sulfamide], at human Y5 receptor (setting [2]), the Ki amounted to 12.4 nM.
Turning to `CCNc1nc(NCC)nc(NCC2CCC(CNS(=O)(=O)c3ccc(F)cc3)CC2)n1` (centres unmarked) [Example 30, N1-[4-([4,6-di(ethylamino)-1,3,5-triazin-2-yl]aminomethyl)cyclohexyl]methyl-4-fluoro-1-benzenesulfonamide], the inhibition constant Ki on human Y5 receptor (setting [3]) was determined as 40 nM.

One may read the Ki as the equilibrium dissociation constant of an inhibitor or competing ligand from its target.
